Experimental data reported in PubChem BioAssay (NCI).
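GI50 = concentration required for 50% inhibition of growth. TGI: concentration producing complete growth inhibition.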

Tests used:
Assay in all cases: inhibition of tumour cell growth, NCI panel, 384-well format
SNB-19 CNS = test system: SNB-19 CNS
OVCAR-5 ovarian = test system: OVCAR-5 ovarian
HCT-116 colon = test system: HCT-116 colon
SW-620 colon = test system: SW-620 colon
NCI-H460 NSCLC = test system: NCI-H460 NSCLC
TK-10 renal = test system: TK-10 renal
BT-549 breast = test system: BT-549 breast
UACC-62 melanoma = test system: UACC-62 melanoma
PC-3 prostate = test system: PC-3 prostate
HOP-92 NSCLC = test system: HOP-92 NSCLC
MDA-MB-231 breast = test system: MDA-MB-231 breast
SN12C renal = test system: SN12C renal
NCI-H522 lung = test system: NCI-H522 lung
786-0 renal = test system: 786-0 renal
KM12 colon = test system: KM12 colon
OVCAR-4 ovarian = test system: OVCAR-4 ovarian
MDA-MB-435 melanoma = test system: MDA-MB-435 melanoma
OVCAR-3 ovarian = test system: OVCAR-3 ovarian
MCF7 breast = test system: MCF7 breast
SK-MEL-2 melanoma = test system: SK-MEL-2 melanoma
HL-60(TB) leukemia = test system: HL-60(TB) leukemia
ACHN renal = test system: ACHN renal
SR leukemia = test system: SR leukemia
M14 melanoma = test system: M14 melanoma
SF-268 CNS = test system: SF-268 CNS
HS 578T breast = test system: HS 578T breast
K-562 leukemia = test system: K-562 leukemia
CAKI-1 renal = test system: CAKI-1 renal
HT29 colon = test system: HT29 colon
SK-MEL-28 melanoma = test system: SK-MEL-28 melanoma
SNB-75 CNS = test system: SNB-75 CNS
DU-145 prostate = test system: DU-145 prostate
A498 renal = test system: A498 renal
A549 NSCLC = test system: A549 NSCLC
MOLT-4 leukemia = test system: MOLT-4 leukemia
MDA-MB-468 breast = test system: MDA-MB-468 breast
HCT-15 colon = test system: HCT-15 colon
SK-MEL-5 melanoma = test system: SK-MEL-5 melanoma
RPMI-8226 leukemia = test system: RPMI-8226 leukemia
NCI-H322M lung = test system: NCI-H322M lung
T-47D breast = test system: T-47D breast
HOP-62 NSCLC = test system: HOP-62 NSCLC
MALME-3M melanoma = test system: MALME-3M melanoma
IGROV1 ovarian = test system: IGROV1 ovarian
UO-31 renal = test system: UO-31 renal
CCRF-CEM leukemia = test system: CCRF-CEM leukemia
NCI-H23 lung = test system: NCI-H23 lung
NCI/ADR-RES ovarian = test system: NCI/ADR-RES ovarian
NCI-H226 lung = test system: NCI-H226 lung
SF-539 CNS = test system: SF-539 CNS
SF-295 CNS = test system: SF-295 CNS
LOX IMVI melanoma = test system: LOX IMVI melanoma
EKVX NSCLC = test system: EKVX NSCLC
UACC-257 melanoma = test system: UACC-257 melanoma
HCC-2998 colon = test system: HCC-2998 colon
OVCAR-8 ovarian = test system: OVCAR-8 ovarian
SK-OV-3 ovarian = test system: SK-OV-3 ovarian
RXF 393 renal = test system: RXF 393 renal
COLO 205 colon = test system: COLO 205 colon
U251 glioblastoma = test system: U251 glioblastoma

SMILES: O=C(O)c1ccc2c(c1)CCCC(c1ccc(Cl)cc1Cl)=C2c1ccc(O[C@H]2CCN(CCCF)C2)cc1
- GI50 (SNB-19 CNS): 13.1 µM
- TGI (SNB-19 CNS): 26 µM
- GI50 (OVCAR-5 ovarian): 15.2 µM
- TGI (OVCAR-5 ovarian): 28.6 µM
- GI50 (HCT-116 colon): 5.87 µM
- TGI (HCT-116 colon): 18.8 µM
- GI50 (SW-620 colon): 15.7 µM
- TGI (SW-620 colon): 29.4 µM
- GI50 (NCI-H460 NSCLC): 10.3 µM
- TGI (NCI-H460 NSCLC): 22.2 µM
- GI50 (TK-10 renal): 12.5 µM
- TGI (TK-10 renal): 25.2 µM
- GI50 (BT-549 breast): 12 µM
- TGI (BT-549 breast): 24.3 µM
- GI50 (UACC-62 melanoma): 13.5 µM
- TGI (UACC-62 melanoma): 26.3 µM
- GI50 (PC-3 prostate): 10.2 µM
- TGI (PC-3 prostate): 21.9 µM
- GI50 (HOP-92 NSCLC): 12.3 µM
- TGI (HOP-92 NSCLC): 24.8 µM
- GI50 (MDA-MB-231 breast): 14.8 µM
- TGI (MDA-MB-231 breast): 28.1 µM
- GI50 (SN12C renal): 14.4 µM
- TGI (SN12C renal): 27.5 µM
- GI50 (NCI-H522 lung): 10.3 µM
- TGI (NCI-H522 lung): 21.9 µM
- GI50 ([…]-0 renal): 12.7 µM
- TGI (786-0 renal): 25.3 µM
- GI50 (KM12 colon): 11.6 µM
- TGI (KM12 colon): 24.2 µM
- GI50 (OVCAR-4 ovarian): 11.3 µM
- TGI (OVCAR-4 ovarian): 23.5 µM
- GI50 (MDA-MB-435 melanoma): 12.2 µM
- TGI (MDA-MB-435 melanoma): 24.6 µM
- GI50 (OVCAR-3 ovarian): 10.1 µM
- TGI (OVCAR-3 ovarian): 21.8 µM
- GI50 (MCF7 breast): < 0.01 µM
- GI50 (SK-MEL-2 melanoma): 17.4 µM
- TGI (SK-MEL-2 melanoma): 31.2 µM
- GI50 (HL-60(TB) leukemia): 4.44 µM
- TGI (HL-60(TB) leukemia): 16 µM
- GI50 (ACHN renal): 11.9 µM
- TGI (ACHN renal): 24.3 µM
- GI50 (SR leukemia): 2.92 µM
- TGI (SR leukemia): 10.8 µM
- GI50 (M14 melanoma): 11.1 µM
- TGI (M14 melanoma): 23.1 µM
- GI50 (SF-268 CNS): 14.8 µM
- TGI (SF-268 CNS): 28.2 µM
- GI50 (HS 578T breast): 3.36 µM
- TGI (HS 578T breast): 18.1 µM
- GI50 (K-562 leukemia): 7.96 µM
- TGI (K-562 leukemia): 20.7 µM
- GI50 (CAKI-1 renal): 13 µM
- TGI (CAKI-1 renal): 25.7 µM
- GI50 (HT29 colon): 12.2 µM
- TGI (HT29 colon): 24.7 µM
- GI50 (SK-MEL-28 melanoma): 11.7 µM
- TGI (SK-MEL-28 melanoma): 24 µM
- GI50 (SNB-75 CNS): 12.9 µM
- TGI (SNB-75 CNS): 25.6 µM
- GI50 (DU-145 prostate): 13.6 µM
- TGI (DU-145 prostate): 26.6 µM
- GI50 (A498 renal): 6.94 µM
- TGI (A498 renal): 19.6 µM
- GI50 (A549 NSCLC): 9.67 µM
- GI50 (MOLT-4 leukemia): 3.61 µM
- TGI (MOLT-4 leukemia): 14.2 µM

SMILES: C=CC(=O)Nc1cc2c(Nc3ccc(F)c(Cl)c3)ncnc2cc1OCCCN1CCOCC1
- GI50 (SNB-19 CNS): 1.85 µM
- TGI (SNB-19 CNS): 4.14 µM
- GI50 (OVCAR-5 ovarian): 1.74 µM
- TGI (OVCAR-5 ovarian): 13.6 µM
- GI50 (HCT-116 colon): 1.76 µM
- TGI (HCT-116 colon): 3.26 µM
- GI50 (MDA-MB-468 breast): < 0.01 µM
- GI50 (SW-620 colon): 1.69 µM
- TGI (SW-620 colon): 3.08 µM
- GI50 (HCT-15 colon): 1.19 µM
- TGI (HCT-15 colon): 2.47 µM
- GI50 (NCI-H460 NSCLC): 1.51 µM
- TGI (NCI-H460 NSCLC): 2.9 µM
- GI50 (SK-MEL-5 melanoma): 1.41 µM
- TGI (SK-MEL-5 melanoma): 2.75 µM
- GI50 (RPMI-8226 leukemia): 1.22 µM
- TGI (RPMI-8226 leukemia): 2.49 µM
- GI50 (TK-10 renal): 0.0368 µM
- TGI (TK-10 renal): 2.09 µM
- GI50 (NCI-H322M lung): < 0.01 µM
- TGI (NCI-H322M lung): 1.29 µM
- GI50 (BT-549 breast): 1.06 µM
- TGI (BT-549 breast): 2.27 µM
- GI50 (T-47D breast): 0.0547 µM
- TGI (T-47D breast): 1.44 µM
- GI50 (HOP-62 NSCLC): 1.64 µM
- TGI (HOP-62 NSCLC): 3.7 µM
- GI50 (UACC-62 melanoma): 1.45 µM
- TGI (UACC-62 melanoma): 2.78 µM
- GI50 (PC-3 prostate): 1.69 µM
- TGI (PC-3 prostate): 3.11 µM
- GI50 (MALME-3M melanoma): 1.72 µM
- TGI (MALME-3M melanoma): 3.13 µM
- GI50 (IGROV1 ovarian): < 0.01 µM
- TGI (IGROV1 ovarian): 0.838 µM
- GI50 (HOP-92 NSCLC): 1.4 µM
- TGI (HOP-92 NSCLC): 2.93 µM
- GI50 (MDA-MB-231 breast): 1.53 µM
- TGI (MDA-MB-231 breast): 3.77 µM
- GI50 (SN12C renal): 0.267 µM
- TGI (SN12C renal): 1.91 µM
- GI50 (NCI-H522 lung): 0.0653 µM
- TGI (NCI-H522 lung): 0.454 µM
- GI50 (UO-31 renal): 1.17 µM
- TGI (UO-31 renal): 4.22 µM
- GI50 ([…]-0 renal): 1.16 µM
- TGI (786-0 renal): 2.49 µM
- GI50 (CCRF-CEM leukemia): 1.2 µM
- TGI (CCRF-CEM leukemia): 2.46 µM
- GI50 (KM12 colon): 1.58 µM
- TGI (KM12 colon): 3.02 µM
- GI50 (OVCAR-4 ovarian): 2.02 µM
- TGI (OVCAR-4 ovarian): 6 µM
- GI50 (NCI-H23 lung): 1.47 µM
- TGI (NCI-H23 lung): 2.8 µM
- GI50 (NCI/ADR-RES ovarian): 1.45 µM
- TGI (NCI/ADR-RES ovarian): 2.87 µM
- GI50 (MDA-MB-435 melanoma): 2.42 µM
- TGI (MDA-MB-435 melanoma): 5.09 µM
- GI50 (NCI-H226 lung): 1.96 µM
- TGI (NCI-H226 lung): 4.7 µM
- GI50 (SF-539 CNS): 1.37 µM
- TGI (SF-539 CNS): 2.68 µM
- GI50 (OVCAR-3 ovarian): 1.03 µM
- TGI (OVCAR-3 ovarian): 2.22 µM
- GI50 (SF-295 CNS): 4.62 µM
- TGI (SF-295 CNS): 15.8 µM
- GI50 (MCF7 breast): 1.14 µM
- TGI (MCF7 breast): 2.52 µM
- GI50 (LOX IMVI melanoma): 1.51 µM
- TGI (LOX IMVI melanoma): 2.87 µM
- GI50 (EKVX NSCLC): 0.0507 µM
- TGI (EKVX NSCLC): 1.93 µM
- GI50 (HL-60(TB) leukemia): 1.22 µM
- TGI (HL-60(TB) leukemia): 2.5 µM
- GI50 (ACHN renal): 0.0131 µM
- TGI (ACHN renal): 1.66 µM
- GI50 (UACC-257 melanoma): 1.31 µM
- TGI (UACC-257 melanoma): 2.62 µM
- GI50 (HCC-2998 colon): 1.32 µM
- TGI (HCC-2998 colon): 2.63 µM
- GI50 (M14 melanoma): 1.58 µM
- TGI (M14 melanoma): 2.95 µM
- GI50 (OVCAR-8 ovarian): 1.44 µM
- TGI (OVCAR-8 ovarian): 2.79 µM
- GI50 (SF-268 CNS): 0.209 µM
- TGI (SF-268 CNS): 1.65 µM
- GI50 (HS 578T breast): 1.22 µM
- TGI (HS 578T breast): 2.49 µM
- GI50 (SK-OV-3 ovarian): 1.06 µM
- TGI (SK-OV-3 ovarian): 2.67 µM
- GI50 (K-562 leukemia): 1.21 µM
- TGI (K-562 leukemia): 2.49 µM
- GI50 (CAKI-1 renal): 0.462 µM
- TGI (CAKI-1 renal): 1.99 µM
- GI50 (HT29 colon): 1.55 µM
- TGI (HT29 colon): 3 µM
- GI50 (SK-MEL-28 melanoma): 2.03 µM
- TGI (SK-MEL-28 melanoma): 3.52 µM
- GI50 (SNB-75 CNS): 1.12 µM
- TGI (SNB-75 CNS): 2.91 µM
- GI50 (RXF 393 renal): 0.62 µM
- TGI (RXF 393 renal): 2 µM
- GI50 (DU-145 prostate): 1.07 µM
- TGI (DU-145 prostate): 4.19 µM
- GI50 (COLO 205 colon): 1.6 µM
- TGI (COLO 205 colon): 3.11 µM
- GI50 (U251 glioblastoma): 1.91 µM
- TGI (U251 glioblastoma): 3.79 µM
- GI50 (A498 renal): 0.424 µM
- TGI (A498 renal): 1.91 µM
- GI50 (A549 NSCLC): 1.32 µM
- TGI (A549 NSCLC): 2.71 µM
- GI50 (MOLT-4 leukemia): 0.933 µM
- TGI (MOLT-4 leukemia): 2.15 µM
